In article PMC9655245, “Dual Inhibitors of AChE and BACE-1 for Reducing Aβ in Alzheimer’s Disease: From In Silico to In Vivo” (International Journal of Molecular Sciences, 2022):

Columns and labels:
Format in all cases: biochemical
[1] = biological target: T1, AChE (acetylcholinesterase) (Homo sapiens, UniProt P22303); assay: Ellman assay, absorbance at […] nm, 7-point dose response
T1 construct: recombinant, produced in stably expressing CHO-K1 cell line

[2] = biological target: T2, BACE-1 (β-secretase, beta-site APP cleaving enzyme 1) (Homo sapiens, UniProt P56817); assay: fluorogenic Mca/Dnp peptide cleavage, single point
T2 construct: gene BACE1; commercial recombinant enzyme (R&D Systems 931-AS)
Excerpt: fluorogenic Mca/Dnp peptide cleavage, single point on BACE-1 (β-secretase, beta-site APP cleaving enzyme 1)

[3] = biological target: T2, BACE-1 (β-secretase, beta-site APP cleaving enzyme 1); assay: fluorogenic Mca/Dnp peptide cleavage, 5-point dose response
[4] = biological target: T1, AChE (acetylcholinesterase); assay: Ellman assay, absorbance at […] nm, single point

T1 sequence (P22303 32-614): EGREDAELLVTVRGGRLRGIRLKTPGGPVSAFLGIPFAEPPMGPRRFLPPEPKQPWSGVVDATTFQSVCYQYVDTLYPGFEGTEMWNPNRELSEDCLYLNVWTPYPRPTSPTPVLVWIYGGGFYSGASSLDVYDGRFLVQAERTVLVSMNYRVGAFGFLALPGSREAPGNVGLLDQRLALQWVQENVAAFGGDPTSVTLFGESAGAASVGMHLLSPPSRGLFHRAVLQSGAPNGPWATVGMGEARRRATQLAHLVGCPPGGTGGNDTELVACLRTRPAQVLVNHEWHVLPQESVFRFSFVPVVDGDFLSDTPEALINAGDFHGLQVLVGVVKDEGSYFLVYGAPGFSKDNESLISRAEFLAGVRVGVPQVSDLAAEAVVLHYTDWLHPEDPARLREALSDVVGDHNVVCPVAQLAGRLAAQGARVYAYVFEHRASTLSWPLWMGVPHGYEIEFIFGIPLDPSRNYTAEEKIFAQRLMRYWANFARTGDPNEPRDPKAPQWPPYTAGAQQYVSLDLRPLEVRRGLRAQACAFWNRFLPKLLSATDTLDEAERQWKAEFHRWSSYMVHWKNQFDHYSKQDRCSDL
T2 sequence (P56817 46-457 limits assumed): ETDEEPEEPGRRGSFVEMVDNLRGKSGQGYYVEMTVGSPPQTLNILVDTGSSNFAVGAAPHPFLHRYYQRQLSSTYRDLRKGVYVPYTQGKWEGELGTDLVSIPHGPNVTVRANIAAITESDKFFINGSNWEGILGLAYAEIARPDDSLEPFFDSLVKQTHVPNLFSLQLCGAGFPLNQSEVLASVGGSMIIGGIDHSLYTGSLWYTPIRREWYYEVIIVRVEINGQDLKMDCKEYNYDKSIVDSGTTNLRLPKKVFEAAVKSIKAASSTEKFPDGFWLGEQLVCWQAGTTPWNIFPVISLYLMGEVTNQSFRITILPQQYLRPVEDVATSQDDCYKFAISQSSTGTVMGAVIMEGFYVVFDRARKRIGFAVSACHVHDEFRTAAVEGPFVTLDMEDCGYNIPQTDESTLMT

Row | SMILES | IC50 [1] | inhibition at 100 µM [2] | IC50 [3] | inhibition at 10 µM [4]
1 | Cc1ccc(Cn2c(=O)c(N3CCC(C(=O)NCCN4CCCCC4C)CC3)nc3ccccc32)cc1 (stereo not drawn) [compound 1, C700-2595] | 8.2 µM | 19% |  | 
2 | CCn1c(=O)c(N2CCCC(C(=O)NC3CCN(Cc4ccccc4)CC3)C2)nc2ccccc21 (stereo not drawn) [compound 2, F681-0222] | 4.4 µM |  | 63 µM | 
3 | Cn1c(=O)c(N2CCCC(C(=O)NC3CCN(Cc4ccccc4)CC3)C2)nc2ccccc21 (stereo not drawn) [compound 3, F681-0412] | 6.7 µM |  | 55 µM | 
4 | CCN1CCCC1CNC(=O)CCc1nnc2n(CCc3ccccc3)c(=O)c3ccccc3n12 (stereo not drawn) [compound 4, C741-0335] | 9.7 µM | 6% |  | 
5 | COc1cccc(N2CC(C(=O)Nc3ccccc3CN(C)C3CCCCC3)CC2=O)c1 (stereo not drawn) [compound 5, T6769894] |  |  | 60 µM | 19%
6 | CCOc1cccc(C2CC(c3ccc(C)cc3)=NC3(CCN(C(C)=O)CC3)N2)c1O (stereo not drawn) [compound 6, Z274-0419] |  |  | 150 µM | -12%
